Assay results as given in paper PMC6465675, “Design, Synthesis, Antiviral Evaluation, and SAR Studies of New 1-(Phenylsulfonyl)-1H-Pyrazol−4-yl-Methylaniline Derivatives” (Frontiers in Chemistry, 2019).

Key:
in vitro [1] = conditions: Mesocricetus auratus (hamster)
DENV-2 [2] = tested on: DENV-2
DENV-2 [3] = experiment: microbe, parasite or virus in culture; conditions: Dengue virus, DENV2, BHK, read-out: DENV-2 EC50
in vitro [4] = conditions: human
in vitro [5] = conditions: Cercopithecus aethiops (monkey), Vero76 CC50
in vitro [6] = conditions: Bos taurus (cattle)
RSV [7] = experiment: microbe, parasite or virus in culture; conditions: human respiratory syncytial virus, Vero 76, read-out: RSV EC50
YFV [8] = experiment: microbe, parasite or virus in culture; conditions: Yellow fever virus, BHK, read-out: YFV EC50
YFV [9] = tested on: YFV
RSV [10] = tested on: RSV
BVDV [11] = experiment: microbe, parasite or virus in culture; conditions: Bovine viral diarrhea virus isolates and strains, MDBK, read-out: BVDV EC50
BVDV [12] = tested on: BVDV

Row | Structure (SMILES) | CC50 (in vitro [1]) [µM] | SI CC50/EC50 (DENV-2) (DENV-2 [2]) | EC50 (DENV-2 [3]) [µM] | melting point [°C] | CC50 (in vitro [4]) [µM] | CC50 (in vitro [5]) [µM] | CC50 (in vitro [6]) [µM] | EC50 (RSV [7]) [µM] | EC50 (YFV [8]) [µM] | SI CC50/EC50 (YFV) (YFV [9]) | SI CC50/EC50 (RSV) (RSV [10]) | EC50 (BVDV [11]) [µM] | SI CC50/EC50 (BVDV) (BVDV [12])
1 | Cc1ccc(-c2nn(-c3ccccc3)cc2CNc2ccccc2)cc1 [1a] | > 100 | >3.3 | 30 ± 4 | – | – | – | – | – | – | – | – | – | –
2 | Brc1ccc(-c2nn(-c3ccccc3)cc2CNc2ccccc2)cc1 [1b] | > 100 | >4.5 | 22 ± 6 | – | – | – | – | – | – | – | – | – | –
3 | Brc1ccc(NCc2cn(-c3ccccc3)nc2-c2ccccc2)cc1 [1c] | > 100 | – | – | – | – | – | – | – | – | – | – | – | –
4 | Clc1ccc(-c2nn(-c3ccccc3)cc2CNc2ccc(Br)cc2)cc1 [1d] | > 100 | >9.1 | 11 ± 0.4 | – | – | – | – | – | – | – | – | – | –
5 | Clc1ccc(NCc2cn(-c3ccccc3)nc2-c2ccccc2)cc1 [1h] | > 100 | >7.7 | 13 ± 5 | – | – | – | – | – | – | – | – | – | –
6 | Cc1ccc(-c2nn(-c3ccccc3)cc2CNc2ccc(Cl)cc2)cc1 [1k] | > 100 | >8.3 | 12.1 ± 3 | – | – | – | – | – | – | – | – | – | –
7 | Clc1ccc(NCc2cn(-c3ccccc3)nc2-c2ccc(Br)cc2)cc1 [1l] | > 100 | >7.8 | 12.9 ± 2.3 | – | – | – | – | – | – | – | – | – | –
8 | Cc1ccc(NCc2cn(-c3ccccc3)nc2-c2ccccc2)cc1 [1m] | > 100 | >8.9 | 11.2 ± 3.6 | – | – | – | – | – | – | – | – | – | –
9 | O=S(=O)(c1ccccc1)n1cc(CNc2ccccc2)c(-c2ccccc2)n1 [7a, N-[(3-Phenyl-1-(phenysulfonyl)-1H-pyrazol-4-yl)methyl]aniline] | > 100 | – | – | 139 | > 100 | > 100 | > 100 | – | – | – | – | – | –
10 | Cc1ccc(NCc2cn(S(=O)(=O)c3ccccc3)nc2-c2ccccc2)cc1 [7d, 4-Methyl-N-[(3-phenyl-1-(phenylsulfonyl)-1H-pyrazol-4-yl)methyl]aniline] | > 100 | – | – | 199 | > 100 | ≥ 100 | > 100 | – | – | – | – | – | –
11 | O=S(=O)(c1ccccc1)n1cc(CNc2ccccc2)c(-c2ccc(Cl)cc2)n1 [7i, N-[(3-(4-Chlorophenyl)-1-(phenylsulfonyl)-1H-pyrazol-4-yl)methyl]aniline] | > 100 | – | – | 117 to 118 | > 100 | > 100 | > 100 | 11.8 ± 2.5 | 7.2 ± 0.9 | >13.9 | >8.5 | – | –
12 | O=S(=O)(c1ccccc1)n1cc(CNc2ccc(Br)cc2)c(-c2ccc(Cl)cc2)n1 [7k, 4-Bromo-N-[(3-(4-chlorophenyl)-1-(phenylsulfonyl)-1H-pyrazol-4-yl)methyl]aniline] | > 100 | – | – | 142 to 143 | > 100 | > 100 | > 100 | 13.8 ± 0.4 | 5.6 ± 0.6 | >17.9 | >7.2 | – | –
13 | Cc1ccc(NCc2cn(S(=O)(=O)c3ccccc3)nc2-c2ccc(Cl)cc2)cc1 [7l, 4-Methyl-N-[(3-(4-chlorophenyl)-1-(phenylsulfonyl)-1H-pyrazol-4-yl)methyl]anyline] | > 100 | – | – | 100 to 101 | > 100 | > 100 | > 100 | 24 ± 1 | 6.6 ± 0.6 | >15.2 | >4.2 | – | –
14 | Cc1ccc(-c2nn(S(=O)(=O)c3ccccc3)cc2CNc2ccccc2)cc1 [7m, N-[(1-(Phenylsulfonyl)-3-(p-tolyl)-1H-pyrazol-4-yl)methyl]aniline] | > 100 | – | – | 128 to 129 | > 100 | > 100 | > 100 | 12.5 ± 2.1 | 11.5 ± 1 | >8.7 | >8.0 | – | –
15 | Cc1ccc(-c2nn(S(=O)(=O)c3ccccc3)cc2CNc2ccc(Cl)cc2)cc1 [7n, 4-Chloro-N-[(1-(phenylsulfonyl)-3-(p-tolyl)-1H-pyrazol-4-yl)methyl]aniline] | > 100 | – | – | 115 | > 100 | > 100 | > 100 | 13 ± 2.8 | 5.1 ± 0.6 | >19.6 | >7.7 | – | –
16 | Cc1ccc(-c2nn(S(=O)(=O)c3ccccc3)cc2CNc2ccc(Br)cc2)cc1 [7o, 4-Bromo-N-[(1-(phenylsulfonyl)-3-(p-tolyl)-1H-pyrazol-4-yl)methyl]aniline] | > 100 | – | – | 110 | > 100 | > 100 | > 100 | 13.5 ± 0.5 | 3.7 ± 1.3 | >27.0 | >7.4 | – | –
17 | Cc1ccc(NCc2cn(S(=O)(=O)c3ccccc3)nc2-c2ccc(C)cc2)cc1 [7p, 4-Methyl-N-[(1-(phenysulfonyl)-3-(p-tolyl)-1H-pyrazol-4-yl)methyl]aniline] | > 100 | – | – | 123 to 124 | > 100 | > 100 | > 100 | 12 ± 2 | 3.6 ± 0.5 | >27.8 | >8.3 | – | –
18 | COc1ccc(S(=O)(=O)n2cc(CNc3ccccc3)c(-c3ccc(Br)cc3)n2)cc1 [8a] | > 100 | – | – | 131 to 134 | > 100 | > 100 | > 100 | – | – | – | – | 5.6 ± 0.8 | –
19 | COc1ccc(S(=O)(=O)n2cc(CNc3ccc(Cl)cc3)c(-c3ccc(Br)cc3)n2)cc1 [8b, 4-Chloro-N-[(3-(4-bromophenyl)-1-((4-methoxphenyl)sulfonyl)-1H-pyrazol-4-yl)methyl]aniline] | > 100 | – | – | 153 to 154 | > 100 | > 100 | > 100 | – | 21.6 ± 0.8 | >4.6 | – | 20 ± 1.4 | >5.0
20 | COc1ccc(S(=O)(=O)n2cc(CNc3ccc(Br)cc3)c(-c3ccc(Br)cc3)n2)cc1 [8c, 4-Bromo-N-[(3-(4-bromophenyl)-1-((4-methoxphenyl)sulfonyl)-1H-pyrazol-4-yl)methyl]aniline] | > 100 | – | – | 162 to 164 | > 100 | > 100 | > 100 | – | > 100 | – | – | 23 ± 3.5 | >4.4
21 | COc1ccc(S(=O)(=O)n2cc(CNc3ccc(C)cc3)c(-c3ccc(Br)cc3)n2)cc1 [8d, 4-Methyl-N-[(3-(4-bromophenyl)-1-((4-methoxphenyl)sulfonyl)-1H-pyrazol-4-yl)methyl]aniline] | > 100 | – | – | 164 to 166 | > 100 | 100 | > 100 | – | 18.3 ± 1.1 | >5.5 | – | – | –
22 | COc1ccc(S(=O)(=O)n2cc(CNc3ccccc3)c(-c3ccc(Cl)cc3)n2)cc1 [8e] | > 100 | – | – | 143 to 145 | > 100 | > 100 | > 100 | – | – | – | – | – | –
23 | COc1ccc(S(=O)(=O)n2cc(CNc3ccc(Cl)cc3)c(-c3ccc(Cl)cc3)n2)cc1 [8f, 4-Chloro-N-[(3-(4-chlorophenyl)-1-((4-methoxyphenyl)sulfonyl)-1H-pyrazol-4-yl)methyl]aniline] | > 100 | – | – | 158 to 159 | > 100 | > 100 | > 100 | – | 16 ± 0.7 | >6.25 | – | 7.9 ± 0.8 | >12.7
24 | COc1ccc(S(=O)(=O)n2cc(CNc3ccc(C)cc3)c(-c3ccc(Cl)cc3)n2)cc1 [8h, 4-Methyl-N-[(3-(4-chlorophenyl)-1-((4-methoxyphenyl)sulfonyl)-1H-pyrazol-4-yl)methyl]aniline] | > 100 | – | – | 169 to 171 | > 100 | > 100 | > 100 | – | – | – | – | – | –
25 | COc1ccc(S(=O)(=O)n2cc(CNc3ccccc3)c(-c3ccc(C)cc3)n2)cc1 [8i, N-[(1-((4-Methoxyphenyl)sulfonyl)-3-(p-tolyl)-1H-pyrazol-4-yl)methyl]aniline] | > 100 | – | – | 154 to 155 | > 100 | > 100 | > 100 | – | – | – | – | – | –
26 | COc1ccc(S(=O)(=O)n2cc(CNc3ccc(Cl)cc3)c(-c3ccc(C)cc3)n2)cc1 [8j] | > 100 | – | – | 157 to 158 | > 100 | > 100 | > 100 | – | – | – | – | – | –
27 | COc1ccc(S(=O)(=O)n2cc(CNc3ccc(Br)cc3)c(-c3ccc(C)cc3)n2)cc1 [8k] | > 100 | – | – | 151 to 153 | > 100 | > 100 | > 100 | – | – | – | – | 19.5 ± 1.4 | >5.1
28 | COc1ccc(S(=O)(=O)n2cc(CNc3ccc(C)cc3)c(-c3ccc(C)cc3)n2)cc1 [8l, 4-Methyl-N-[(1-((4-methoxyphenyl)sulfonyl)-3-(p-tolyl)-1H-pyrazol-4-yl)methyl]aniline] | > 100 | – | – | 145 to 146 | > 100 | > 100 | > 100 | – | – | – | – | – | –
29 | O=C1Nc2ccc(Cl)cc2[C@@](C#CC2CC2)(C(F)(F)F)O1 [EFV, Efavirenz, reference compound] | – | – | – | – | 40 ± 2.5 | – | – | – | – | – | – | – | –
